Assay results: US10670605B2, “Cysteine reactive probes and uses thereof” (The Scripps Research Institute, priority 2015, dated 2020)

Legend:
[1] = biological target: DCUN1D1 C115 (Q96GG9) (Homo sapiens, UniProt Q96GG9); assay: Competitive isoTOP-ABPP, cell lysates; assay type: binding; settings: 500 μm, in-vitro_ramos_231
Protocol: (§1) TEV digests were pressure loaded onto a 250 μm (inner diameter) fused silica capillary column packed with C18 resin (Aqua 5 μm, Phenomenex). The samples were analyzed by multidimensional liquid chromatography tandem mass spectrometry (MudPIT), using an LTQ-Velos Orbitrap mass spectrometer (Thermo Scientific) coupled to an Agilent 1200-series quaternary pump. The peptides were eluted onto a biphasic column with a 5 μm tip (100 μm fused silica, packed with C18 (10 cm) and bulk strong cation exchange resin (3 cm, SCX, Phenomenex,)) in a 5-step MudPIT experiment, using 0%, 30%, 60%, 90%, and 100% salt bumps of 500 mM aqueous ammonium acetate and using a gradient of 5-100% buffer B in buffer A (buffer A: 95% water, 5% acetonitrile, 0.1% formic acid; buffer B: 5% water, 95% acetonitrile, 0.1% formic acid) as has been described in Weerapana et al. Nat Protoc 2:1414-1425 (2007). Data was collected in data-dependent acquisition mode with dynamic exclusion enabled (20 s, repeat of 2). One full MS (MS1) scan (400-1800 m/z) was followed by 30 MS2 scans (ITMS) of the nth most abundant ions.
(§2) The ratios of heavy/light for each unique peptide (DMSO/compound treated; isoTOP-ABPP ratios, R values) were quantified with in-house CIMAGE software, using default parameters (3 ms s per peak and signal to noise threshold 2.5). Site-specific engagement of electrophilic fragments was assessed by blockade of IA-alkyne probe labeling. […] Ratios for unique peptide entries were calculated for each experiment; overlapping peptides with the same modified cysteine (e.g. different charge states, MudPIT chromatographic steps or tryptic termini) were grouped together and the median ratio was reported as the final ratio (R). The peptide ratios reported by CIMAGE were further filtered to ensure the removal or correction of low quality ratios in each individual dataset. The quality filters applied were the following: removal of half tryptic peptides; for ratios with high standard deviations from the median (90% of the median or above) the lowest ratio was taken instead of the median; removal of peptides with R=20 and only a single ms2 event triggered during the elution of the parent ion; manual annotation of all the peptides with ratios of 20, removing any peptides with low-quality elution profiles that remained after the previous curation steps. Proteome reactivity values for individual fragments were computed as the percentage of the total quantified cysteine-containing peptides with R values≥4 (defined as liganded cysteines) for each replicate experiment and the final proteome reactivity value was calculated as the mean for all replicate experiments for each fragment from both MDA-MB-231 and Ramos cellular proteomes.
(§3) Biological replicates of the same compound and cell-line were averaged if the standard deviation was below 60% of the mean; otherwise the lowest value of the ratio set was taken.

[2] = biological target: MLTK C22 (Q9NYL2) (Homo sapiens, UniProt Q9NYL2); assay: Competitive isoTOP-ABPP, cell lysates; assay type: binding; settings: 500 μm, in-vitro_ramos_231
Sequence of MLTK C22 (Q9NYL2) (Q9NYL2 whole entry): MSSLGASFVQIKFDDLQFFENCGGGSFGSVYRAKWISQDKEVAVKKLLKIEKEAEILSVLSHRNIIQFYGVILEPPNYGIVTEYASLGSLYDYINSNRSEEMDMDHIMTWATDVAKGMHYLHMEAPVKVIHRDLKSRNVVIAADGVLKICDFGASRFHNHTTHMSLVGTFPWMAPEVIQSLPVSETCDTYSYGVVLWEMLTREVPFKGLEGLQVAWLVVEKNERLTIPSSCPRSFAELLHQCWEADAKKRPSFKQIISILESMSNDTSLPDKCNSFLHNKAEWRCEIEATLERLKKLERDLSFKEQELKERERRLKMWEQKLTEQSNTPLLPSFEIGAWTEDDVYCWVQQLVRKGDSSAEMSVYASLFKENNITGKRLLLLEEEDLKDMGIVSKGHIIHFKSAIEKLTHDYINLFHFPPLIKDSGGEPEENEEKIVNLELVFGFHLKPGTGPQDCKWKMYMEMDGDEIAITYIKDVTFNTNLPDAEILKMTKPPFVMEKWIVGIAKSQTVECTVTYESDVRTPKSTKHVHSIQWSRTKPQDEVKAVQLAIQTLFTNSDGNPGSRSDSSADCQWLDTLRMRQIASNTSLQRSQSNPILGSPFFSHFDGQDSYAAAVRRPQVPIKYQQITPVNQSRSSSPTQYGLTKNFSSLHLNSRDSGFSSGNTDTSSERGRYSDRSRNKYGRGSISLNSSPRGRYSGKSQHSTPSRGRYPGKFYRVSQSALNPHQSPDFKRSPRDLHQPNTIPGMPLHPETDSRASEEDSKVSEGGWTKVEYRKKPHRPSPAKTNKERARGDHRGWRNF
Protocol: as §1, §2, §3

[3] = biological target: CASP8 C360 (Q14790) (Homo sapiens, UniProt Q14790); assay: Competitive isoTOP-ABPP, cell lysates; assay type: binding; settings: 500 μm, in-vitro_ramos_231
Sequence of CASP8 C360 (Q14790) (Q14790 whole entry): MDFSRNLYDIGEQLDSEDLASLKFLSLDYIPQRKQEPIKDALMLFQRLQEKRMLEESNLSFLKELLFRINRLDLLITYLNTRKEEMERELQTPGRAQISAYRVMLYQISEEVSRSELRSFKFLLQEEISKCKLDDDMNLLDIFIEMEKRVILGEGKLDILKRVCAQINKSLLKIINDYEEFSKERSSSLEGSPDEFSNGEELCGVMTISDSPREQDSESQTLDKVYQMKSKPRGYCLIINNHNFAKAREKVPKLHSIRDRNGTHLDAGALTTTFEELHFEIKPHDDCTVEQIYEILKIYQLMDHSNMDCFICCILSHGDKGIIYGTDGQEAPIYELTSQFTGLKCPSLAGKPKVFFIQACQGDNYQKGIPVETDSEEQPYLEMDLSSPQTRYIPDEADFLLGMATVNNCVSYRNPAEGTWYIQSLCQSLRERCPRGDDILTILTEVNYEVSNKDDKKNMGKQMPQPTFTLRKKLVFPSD
Protocol: as §1, §2, §3

[4] = biological target: GSTP1 C48 (P09211) (Homo sapiens, UniProt P09211); assay: Competitive isoTOP-ABPP, cell lysates; assay type: binding; settings: 500 μm, in-vitro_ramos_231;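 further: Heavy/light ratio DMSO over fragment-treated so higher means more cysteine engagement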
Sequence of GSTP1 C48 (P09211) (P09211 whole entry, the tested form may be a part): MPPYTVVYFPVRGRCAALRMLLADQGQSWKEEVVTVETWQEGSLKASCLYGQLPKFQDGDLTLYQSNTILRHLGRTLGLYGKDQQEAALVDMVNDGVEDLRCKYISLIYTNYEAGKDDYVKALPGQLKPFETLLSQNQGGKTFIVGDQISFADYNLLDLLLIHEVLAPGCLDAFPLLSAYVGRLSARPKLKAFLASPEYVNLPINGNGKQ
Protocol: as §1, §2, §3

[5] = biological target: XPO1 C34 (O14980) (Homo sapiens, UniProt O14980); assay: Competitive isoTOP-ABPP, cell lysates; assay type: binding; settings: 500 μm, in-vitro_ramos_231
Sequence of XPO1 C34 (O14980) (O14980 whole entry): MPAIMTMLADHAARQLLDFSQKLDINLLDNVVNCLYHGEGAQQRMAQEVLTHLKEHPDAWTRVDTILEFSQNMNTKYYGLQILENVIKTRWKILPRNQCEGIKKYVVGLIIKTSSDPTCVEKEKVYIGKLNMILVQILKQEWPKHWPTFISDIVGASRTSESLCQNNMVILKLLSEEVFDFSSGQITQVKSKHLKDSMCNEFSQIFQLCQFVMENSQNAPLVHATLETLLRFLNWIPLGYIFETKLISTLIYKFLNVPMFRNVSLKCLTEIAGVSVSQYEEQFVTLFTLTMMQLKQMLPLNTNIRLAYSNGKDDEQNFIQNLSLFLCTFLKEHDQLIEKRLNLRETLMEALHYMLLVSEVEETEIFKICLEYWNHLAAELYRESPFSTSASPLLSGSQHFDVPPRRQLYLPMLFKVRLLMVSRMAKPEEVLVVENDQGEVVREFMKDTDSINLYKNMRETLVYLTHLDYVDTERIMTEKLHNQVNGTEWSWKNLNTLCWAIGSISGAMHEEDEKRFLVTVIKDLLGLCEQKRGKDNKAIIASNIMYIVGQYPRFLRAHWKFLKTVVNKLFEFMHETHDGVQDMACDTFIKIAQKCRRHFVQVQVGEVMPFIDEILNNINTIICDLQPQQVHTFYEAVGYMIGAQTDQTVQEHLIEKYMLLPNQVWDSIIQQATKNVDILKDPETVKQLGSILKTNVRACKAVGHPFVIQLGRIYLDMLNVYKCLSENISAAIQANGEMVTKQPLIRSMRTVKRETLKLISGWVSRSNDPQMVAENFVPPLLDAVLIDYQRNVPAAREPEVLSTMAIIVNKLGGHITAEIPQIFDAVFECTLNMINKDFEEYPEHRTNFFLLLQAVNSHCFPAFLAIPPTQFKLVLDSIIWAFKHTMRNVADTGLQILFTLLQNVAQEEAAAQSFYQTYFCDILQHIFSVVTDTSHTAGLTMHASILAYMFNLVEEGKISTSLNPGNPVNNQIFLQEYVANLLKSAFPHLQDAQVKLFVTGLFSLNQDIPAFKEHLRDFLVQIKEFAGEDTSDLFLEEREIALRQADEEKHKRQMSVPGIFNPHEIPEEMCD
Protocol: as §1, §2, §3

[6] = biological target: STAT3 C259 (P40763) (Homo sapiens, UniProt P40763); assay: Competitive isoTOP-ABPP, cell lysates; assay type: binding; settings: 500 μm, in-vitro_ramos_231
Sequence of STAT3 C259 (P40763) (P40763 whole entry): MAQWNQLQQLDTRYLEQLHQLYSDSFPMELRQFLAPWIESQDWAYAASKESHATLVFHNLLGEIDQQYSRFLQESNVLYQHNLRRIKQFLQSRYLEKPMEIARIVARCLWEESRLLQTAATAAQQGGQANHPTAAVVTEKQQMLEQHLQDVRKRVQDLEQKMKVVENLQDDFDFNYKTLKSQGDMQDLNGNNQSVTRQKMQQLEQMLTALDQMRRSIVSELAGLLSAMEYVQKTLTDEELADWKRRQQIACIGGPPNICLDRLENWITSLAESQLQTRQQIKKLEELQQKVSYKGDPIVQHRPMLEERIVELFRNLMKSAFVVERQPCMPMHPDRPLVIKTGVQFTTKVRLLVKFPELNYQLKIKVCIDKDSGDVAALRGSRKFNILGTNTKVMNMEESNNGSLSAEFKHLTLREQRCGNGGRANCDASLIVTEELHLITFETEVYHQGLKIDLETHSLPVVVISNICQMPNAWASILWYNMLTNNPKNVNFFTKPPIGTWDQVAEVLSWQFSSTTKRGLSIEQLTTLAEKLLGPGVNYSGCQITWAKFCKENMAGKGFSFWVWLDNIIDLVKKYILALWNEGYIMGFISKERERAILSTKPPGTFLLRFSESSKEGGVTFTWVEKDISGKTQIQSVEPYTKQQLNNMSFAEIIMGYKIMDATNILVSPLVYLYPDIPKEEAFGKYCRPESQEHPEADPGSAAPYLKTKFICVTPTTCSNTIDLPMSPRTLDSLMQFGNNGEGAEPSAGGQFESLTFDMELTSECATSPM
Protocol: as §1, §2, §3

[7] = biological target: IDH1 C269 (O75874) (Homo sapiens, UniProt O75874); assay: Competitive isoTOP-ABPP, cell lysates; assay type: binding; settings: 500 μm, in-vitro_ramos_231
Sequence of IDH1 C269 (O75874) (O75874 whole entry): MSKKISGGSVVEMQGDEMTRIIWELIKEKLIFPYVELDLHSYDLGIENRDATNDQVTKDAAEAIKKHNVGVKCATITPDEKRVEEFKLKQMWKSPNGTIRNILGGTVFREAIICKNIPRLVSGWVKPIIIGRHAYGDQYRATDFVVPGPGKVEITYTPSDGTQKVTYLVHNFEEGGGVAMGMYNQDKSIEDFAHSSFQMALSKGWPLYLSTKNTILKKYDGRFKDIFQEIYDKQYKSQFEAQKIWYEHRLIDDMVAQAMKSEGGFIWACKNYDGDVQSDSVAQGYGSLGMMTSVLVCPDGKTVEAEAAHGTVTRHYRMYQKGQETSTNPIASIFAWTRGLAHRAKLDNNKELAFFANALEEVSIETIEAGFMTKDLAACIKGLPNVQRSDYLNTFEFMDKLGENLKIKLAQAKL
Protocol: as §1, §2, §3

[8] = biological target: T1, PDIA6 C190 (Q15084) (Homo sapiens, UniProt Q15084); assay: Competitive isoTOP-ABPP, cell lysates; assay type: binding; settings: 500 μm, in-vitro_ramos_231;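 further: Heavy/light ratio DMSO over fragment-treated so higher means more cysteine engagement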
T1 sequence (Q15084 20-440): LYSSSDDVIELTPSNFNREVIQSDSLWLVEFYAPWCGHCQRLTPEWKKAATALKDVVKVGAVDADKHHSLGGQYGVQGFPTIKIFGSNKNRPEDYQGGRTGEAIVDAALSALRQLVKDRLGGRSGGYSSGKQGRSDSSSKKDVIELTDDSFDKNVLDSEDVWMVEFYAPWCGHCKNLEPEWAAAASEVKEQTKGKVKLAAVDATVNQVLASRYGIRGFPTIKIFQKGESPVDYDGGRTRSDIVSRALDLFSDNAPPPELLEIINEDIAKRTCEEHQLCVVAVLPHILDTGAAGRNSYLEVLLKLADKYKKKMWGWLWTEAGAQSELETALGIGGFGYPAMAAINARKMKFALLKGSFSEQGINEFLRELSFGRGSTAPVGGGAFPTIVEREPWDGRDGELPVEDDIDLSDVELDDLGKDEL
Protocol: as §1, §2, §3

[9] = biological target: T2, PDIA6 C55 (Q15084) (Homo sapiens, UniProt Q15084); assay: Competitive isoTOP-ABPP, cell lysates; assay type: binding; settings: 500 μm, in-vitro_ramos_231
T2 sequence (Q15084 20-440): T1 sequence (Q15084 20-440)
Protocol: as §1, §2, §3

[10] = biological target: PRMT1 C109 (Q99873) (Homo sapiens, UniProt Q99873); assay: Competitive isoTOP-ABPP, cell lysates; assay type: binding; settings: 500 μm, in-vitro_ramos_231;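 further: Heavy/light ratio DMSO over fragment-treated so higher means more cysteine engagement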
Sequence of PRMT1 C109 (Q99873) (Q99873 whole entry, the tested form may be a part): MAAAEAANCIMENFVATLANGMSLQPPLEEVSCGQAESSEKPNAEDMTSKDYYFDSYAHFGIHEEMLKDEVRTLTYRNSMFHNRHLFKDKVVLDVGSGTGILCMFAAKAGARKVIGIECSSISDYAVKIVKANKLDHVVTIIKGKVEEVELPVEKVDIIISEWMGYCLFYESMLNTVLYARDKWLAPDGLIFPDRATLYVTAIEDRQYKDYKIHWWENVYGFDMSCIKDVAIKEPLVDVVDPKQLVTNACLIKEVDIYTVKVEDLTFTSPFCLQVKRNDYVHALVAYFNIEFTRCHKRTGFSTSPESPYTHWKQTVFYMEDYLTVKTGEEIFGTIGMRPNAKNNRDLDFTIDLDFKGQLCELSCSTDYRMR
Protocol: as §1, §2, §3

[11] = biological target: T3, ACAT1 C126 (P24752) (Homo sapiens, UniProt P24752); assay: Competitive isoTOP-ABPP, cell lysates; assay type: binding; settings: 500 μm, in-vitro_ramos_231
T3 sequence (P24752 34-427): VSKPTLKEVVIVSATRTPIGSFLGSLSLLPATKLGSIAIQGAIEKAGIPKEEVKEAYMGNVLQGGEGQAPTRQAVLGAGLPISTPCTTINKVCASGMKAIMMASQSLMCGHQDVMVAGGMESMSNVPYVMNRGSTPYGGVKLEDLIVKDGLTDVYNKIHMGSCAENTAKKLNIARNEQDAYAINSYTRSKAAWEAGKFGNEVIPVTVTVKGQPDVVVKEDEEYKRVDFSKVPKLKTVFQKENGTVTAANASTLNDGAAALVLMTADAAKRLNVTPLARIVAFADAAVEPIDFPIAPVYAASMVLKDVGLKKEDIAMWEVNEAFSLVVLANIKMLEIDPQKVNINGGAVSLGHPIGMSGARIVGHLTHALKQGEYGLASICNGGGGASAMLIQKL

[12] = biological target: T4, ACAT1 C196 (P24752) (Homo sapiens, UniProt P24752); assay: Competitive isoTOP-ABPP, cell lysates; assay type: binding; settings: 500 μm, in-vitro_ramos_231
T4 sequence (P24752 34-427): T3 sequence (P24752 34-427)

[13] = biological target: T5, ACAT1 C119 (P24752) (Homo sapiens, UniProt P24752); assay: Competitive isoTOP-ABPP, cell lysates; assay type: binding; settings: 500 μm, in-vitro_ramos_231
T5 sequence (P24752 34-427): T3 sequence (P24752 34-427)

[14] = biological target: T6, ACAT1 C413 (P24752) (Homo sapiens, UniProt P24752); assay: Competitive isoTOP-ABPP, cell lysates; assay type: binding; settings: 500 μm, in-vitro_ramos_231
T6 sequence (P24752 34-427): T3 sequence (P24752 34-427)

[15] = tested on: cysteines in MDA-MB-231 and Ramos cell proteomes; assay: Competitive isoTOP-ABPP in cell lysates (in vitro): proteomic reactivity / liganded cysteine rate; assay type: binding, human; settings: for proteomic reactivity value (liganded cysteine rate): fragment 500 μM, % of quantified cysteines with R ≥4
Protocol: All cell lines were obtained from ATCC, were used with a low passage number and were grown at 37° C. with 5% CO2. MDA-MB-231 cells and HEK-293T cells were grown in DMEM supplemented with 10% fetal bovine serum, penicillin, streptomycin and glutamine. Jurkat, Ramos and MUM2C cells were grown in RPMI-1640 medium supplemented with 10% fetal bovine serum, penicillin and streptomycin. For in vitro labeling, cells were grown to 100% confluence for MDA-MB-231 cells or until cell density reached 1.5 million cells/mL for Ramos and Jurkat cells. […] Cell pellets were lysed by sonication and fractionated (100,000 g, 45 min) to yield soluble and membrane fractions, which were then adjusted to a final protein concentration of 1.5 mg/mL for proteomics experiments and 1 mg/mL for gel-based ABPP experiments. The soluble lysate was prepared fresh from frozen pellets directly before each experiment. Protein concentration was determined using the Bio-Rad DC™ protein assay kit.
For each sample, 100 μL of streptavidin-agarose beads slurry (Pierce) was washed in 10 mL PBS and then resuspended in 5 mL PBS. The SDS-solubilized proteins were added to the suspension of streptavidin-agarose beads and the bead mixture was rotated for 3 h at ambient temperature. After incubation, the beads were pelleted by centrifugation (1,400 g, 3 min) and were washed (2×10 mL PBS and 2×10 mL water).
The beads were transferred to eppendorf tubes with 1 mL PBS, centrifuged (1,400 g, 3 min), and resuspended in PBS containing 6 M urea (500 μL). To this was added 10 mM DTT (25 μL of a 200 mM stock in water) and the beads were incubated at 65° C. for 15 mins. 20 mM iodoacetamide (25 μL of a 400 mM stock in water) was then added and allowed to react at 37° C. for 30 mins with shaking. The bead mixture was diluted with 900 μL PBS, pelleted by centrifugation (1,400 g, 3 min), and resuspended in 200 μL PBS. To this was added 1 mM CaCl2 ([…]) and trypsin (2 μg, Promega, sequencing grade) and the digestion was allowed to proceed overnight at 37° C. with shaking. The beads were separated from the digest with Micro Bio-Spin columns (Bio-Rad) by centrifugation (1,000 g, 1 min), washed (2×1 mL PBS and 2×1 mL water) and then transferred to fresh eppendorfs with 1 mL water. The washed beads were washed once further in 140 μL TEV buffer (50 mM Tris, pH 8, 0.5 mM EDTA, 1 mM DTT) and then resuspended in 140 μL TEV buffer. 5 μL TEV protease (80 μM) was added and the reactions were rotated overnight at 29° C. The TEV digest was separated from the beads with Micro Bio-Spin columns by centrifugation (1,400 g, 3 min) and the beads were washed once with water (100 μL). The samples were then acidified to a final concentration of 5% (v/v) formic acid and stored at −80° C. prior to analysis.

[16] = tested on: protein targets in MDA-MB-231 cells; assay: Whole protein capture with click probes (SILAC proteomics), native vs heat denatured; assay type: binding, human; settings: proteins liganded by parent fragment (3 / 14) and enriched by click probe (19 / 18)
Protocol: Protein enrichment by 18 and 19 was measured by whole protein capture of isotopically-SILAC labeled MDA-MB-231 cells using quantitative (SILAC) proteomics.

[17] = biological target: T7, IMPDH2 (C140) (Homo sapiens, UniProt P12268); assay: Click probe 18 labeling of recombinant IMPDH2 and its competition; assay type: binding
T7 construct: Full length cDNAs encoding for IDH1 (Open Biosystems, Clone ID: 3880331) and IMPDH2 (Open Biosystems, Clone ID: 3447994); His6 (C); made in house; host or cells: E. coli BL21(DE3)

Sequence of DCUN1D1 C115 (Q96GG9) (Q96GG9 whole entry, the tested form may be a part): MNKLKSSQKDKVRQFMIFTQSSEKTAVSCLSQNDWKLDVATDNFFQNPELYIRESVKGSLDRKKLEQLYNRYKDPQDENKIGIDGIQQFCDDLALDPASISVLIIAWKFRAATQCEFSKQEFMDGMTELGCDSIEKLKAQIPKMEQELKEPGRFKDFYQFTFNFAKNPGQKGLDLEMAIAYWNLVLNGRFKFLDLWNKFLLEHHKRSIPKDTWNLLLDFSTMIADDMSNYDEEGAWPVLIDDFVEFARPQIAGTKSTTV

Cc1ncc(CO)c(CNC(=O)CCl)c1O [compound 54]
isoTOP-ABPP reactivity profile ratio, Q96GG9_C115 [1]: 1.1 | isoTOP-ABPP reactivity profile ratio, Q9NYL2_C22 [2]: 1.1 | isoTOP-ABPP reactivity profile ratio, Q14790_C360 [3]: 1.2 | isoTOP-ABPP reactivity profile ratio, P09211_C48 [4]: 1.3 | isoTOP-ABPP reactivity profile ratio, O14980_C34 [5]: 1.1 | isoTOP-ABPP reactivity profile ratio, P40763_C259 [6]: 1.3 | isoTOP-ABPP reactivity profile ratio, O75874_C269 [7]: 1.1 | isoTOP-ABPP reactivity profile ratio, Q15084_C190 [8]: 1.2 | isoTOP-ABPP reactivity profile ratio, Q15084_C55 [9]: 1.2 | isoTOP-ABPP reactivity profile ratio, Q99873_C109 [10]: 1.2 | isoTOP-ABPP reactivity profile ratio, P24752_C126 [11]: 1.1 | isoTOP-ABPP reactivity profile ratio, P24752_C196 [12]: 1.1 | isoTOP-ABPP reactivity profile ratio, P24752_C119 [13]: 1.0 | isoTOP-ABPP reactivity profile ratio, P24752_C413 [14]: 1.1

CC(=O)Nc1cc(C(F)(F)F)cc(C(F)(F)F)c1 [compound 17]
relative proteomic reactivity (in words) ([15]; 500 μM, electrophiles on common 3,5-di(trifluoromethyl)phenyl group): negligible activity | proteomic reactivity value (liganded cysteine rate) [15]: < 0.2%

C#CCCCCNC(=O)c1cc(NC(=O)CCl)cc(C(F)(F)F)c1 [compound 19]
percentage of quantified protein targets sensitive to heat denaturation [16]: 64%

Nc1ncnc2c1ncn2[C@@H]1O[C@H](COP(=O)(O)OP(=O)(O)OP(=O)(O)O)[C@@H](O)[C@H]1O [ATP]
inhibition of 18 labeling of IMPDH2 by nucleotides ([17]; 500 μM of each nucleotide): inhibited | IC50 ([17]; probe 18 25 μM, ATP 15 min pre-incubation, read-out: IC50 for blockade of 18 labeling of IMPDH2): 45 µM

C=CC(=O)Nc1cc(C(F)(F)F)cc(C(F)(F)F)c1 [compound 14]
proteomic reactivity value (liganded cysteine rate) [15]: 3.4% | inhibition of 18 labeling of IMPDH2 by fragments ([17]; probe 18 25 μM): inhibited
